Like-named read-outs stand apart in the source and are kept apart here.
Tests used:
[1] = test system: NPC1 human fibroblast GM03123 cells; assay: Filipin microscopy assay of free cholesterol in lysosomal storage organelles (LSO ratio); format: cell-based; conditions: for EC50: read-out: EC50 for correcting the NPC1 phenotype; for effect on NPC1 phenotype: after 4 hours
Protocol: Images were acquired with wide-field microscopy at 10× magnification. […] The effect of each HDACi on NPC1 human fibroblasts was then determined at varying concentrations and times. […] Briefly, NPC1 human fibroblast GM03123 cells were seeded in five 384-well plates in growth medium. […] HDACi were allowed to remain in the culture medium for 72, 48, 24, 4, and 0 hours of treatment. For the control, cells were treated with a corresponding concentration of dimethyl sulfoxide (DMSO). HDACi were added to five wells for each concentration. […] Images were analyzed to obtain an LSO ratio and data were normalized to corresponding DMSO-treated cells.

[2] = test system: NPC1 human fibroblast GM18453 cells; assay: Filipin microscopy assay of free cholesterol in LSO (LSO ratio); format: cell-based
Protocol: Next, the effect of HDACi on NPC1I1061T homozygous NPC1 human fibroblasts (GM18453) and on NPC2 human fibroblasts (GM18445) was evaluated. Briefly, NPC1 human fibroblast GM18453 cells and NPC2 human fibroblast GM18455 cells were seeded in five 384-well plates in growth medium. […] Cells were incubated at 37° C. in the presence of 5% CO2 atmosphere for 48 hours. […] Images were analyzed to obtain an LSO ratio and data were normalized to corresponding DMSO-treated cells. […] The dotted horizontal lines indicate mean values for the solvent control, and error bars represent the standard error.
Briefly, NPC1 human fibroblast GM18453 cells and NPC2 human fibroblast GM18455 cells were seeded in five 384-well plates in growth medium. […] Cells were incubated at 37° C. in the presence of 5% CO2 atmosphere for 48 hours. […] Images were analyzed to obtain an LSO ratio, and data were normalized to corresponding DMSO-treated cells. […] The dotted horizontal lines indicate mean values for the solvent control, and the error bars represent the standard error.

HDAC2 = HDAC2 (Homo sapiens, UniProt Q92769); conditions: read-out: Inhibition constant Ki HDAC2; cited from earlier work
[3] = Homo sapiens, Fibroblast, after 48 hours

Chain of HDAC2 (Q92769 whole entry, species assumed): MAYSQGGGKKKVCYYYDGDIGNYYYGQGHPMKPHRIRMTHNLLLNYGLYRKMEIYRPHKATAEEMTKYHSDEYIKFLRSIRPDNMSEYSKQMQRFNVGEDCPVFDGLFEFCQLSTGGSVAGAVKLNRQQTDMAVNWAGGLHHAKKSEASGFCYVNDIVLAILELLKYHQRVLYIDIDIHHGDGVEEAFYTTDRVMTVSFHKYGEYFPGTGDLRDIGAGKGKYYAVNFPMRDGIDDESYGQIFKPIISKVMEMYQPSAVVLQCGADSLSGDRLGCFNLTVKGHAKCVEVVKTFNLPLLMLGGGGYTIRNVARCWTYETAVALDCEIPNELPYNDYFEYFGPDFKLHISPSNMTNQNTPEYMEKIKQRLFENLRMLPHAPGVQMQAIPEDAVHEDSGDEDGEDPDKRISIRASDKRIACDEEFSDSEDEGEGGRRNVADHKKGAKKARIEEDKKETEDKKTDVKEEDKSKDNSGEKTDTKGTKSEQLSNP

CCCCOc1ccc(CC(=O)NO)cc1 [Bufexamac]
correction of the NPC1 phenotype ([1]; various concentrations (0.04-10 μM) and times (4-72 hours), GM03123): no correction of the NPC1 phenotype

CC(=O)Nc1ccc(C(=O)Nc2ccccc2N)cc1 [CL-994]
EC50 [1, 3]: ~1000 nM
effect on NPC1 phenotype ([1]; GM03123): no effect

Cc1[nH]c2ccccc2c1CCNCc1ccc(/C=C/C(=O)NO)cc1 [LBH-589, panobinostat]
EC50 ([1]; Homo sapiens, Fibroblast, 48 h): < 4 nM
concentration of highest efficacy in correcting the NPC1 phenotype ([2]; 48-hour treatment, GM18453): 37 nM

COc1ccc(Cn2ccc3ccc(C(=O)NO)cc32)cc1 [PCI-34051]
correction of the NPC1 phenotype ([2]; 40 nM to 10 μM, 48 hours, NPC1 human fibroblasts (FIG. 6)): no correction of the NPC1 phenotype

O=C(CCCCCCC(=O)Nc1cccnc1)NO [Pyroxamide]
EC50 [1, 3]: ~1000 nM
Ki (HDAC2): 3.6 nM

O=C(CCCCCCC(=O)Nc1ccccc1)NO [SAHA, vorinostat]
effect on NPC1 phenotype ([1]; GM03123): no effect

CC(/C=C/C(=O)NO)=C\[C@@H](C)C(=O)c1ccc(N(C)C)cc1 [TSA, trichostatin A]
EC50 ([1]; after 48 hours): ~20 nM
